According to patent publication US9642831B2, “Substituted chromanes and method of use” (AbbVie S.á.r.l., priority 2014, dated 2017):
pEC50: −log10 of the molar value.

Biological target: F508delCFTR (Homo sapiens, UniProt P13569, DEL508-508)
Experiment: Cell Surface Expression-Horse Radish Peroxidase (CSE-HRP) assay
Type: cell-based
Set-up: expressed in transfected cells; host or cells: CFBE41o- human lung derived epithelial cell line, doxycycline-inducible
Conditions: CFBE4lo-F508delCFTR-HRP cells; for pEC50: 18-24 hours at 33° C., 8-point curve, highest concentration 20 μM, luminescence readout; for Emax: maximum % activity at any tested concentration, normalized to on-plate positive control (3 μM Example 1)
In short: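 Following 18-24 h compound exposure at 33° C. Expression was doxycycline-induced beforehand. % activity versus DMSO and a 3 μM corrector control gave maximum activity and EC50 from a variable-Hill sigmoidal fit.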

Sequence of F508delCFTR (P13569 with tags, fused parts or gaps DEL508-508): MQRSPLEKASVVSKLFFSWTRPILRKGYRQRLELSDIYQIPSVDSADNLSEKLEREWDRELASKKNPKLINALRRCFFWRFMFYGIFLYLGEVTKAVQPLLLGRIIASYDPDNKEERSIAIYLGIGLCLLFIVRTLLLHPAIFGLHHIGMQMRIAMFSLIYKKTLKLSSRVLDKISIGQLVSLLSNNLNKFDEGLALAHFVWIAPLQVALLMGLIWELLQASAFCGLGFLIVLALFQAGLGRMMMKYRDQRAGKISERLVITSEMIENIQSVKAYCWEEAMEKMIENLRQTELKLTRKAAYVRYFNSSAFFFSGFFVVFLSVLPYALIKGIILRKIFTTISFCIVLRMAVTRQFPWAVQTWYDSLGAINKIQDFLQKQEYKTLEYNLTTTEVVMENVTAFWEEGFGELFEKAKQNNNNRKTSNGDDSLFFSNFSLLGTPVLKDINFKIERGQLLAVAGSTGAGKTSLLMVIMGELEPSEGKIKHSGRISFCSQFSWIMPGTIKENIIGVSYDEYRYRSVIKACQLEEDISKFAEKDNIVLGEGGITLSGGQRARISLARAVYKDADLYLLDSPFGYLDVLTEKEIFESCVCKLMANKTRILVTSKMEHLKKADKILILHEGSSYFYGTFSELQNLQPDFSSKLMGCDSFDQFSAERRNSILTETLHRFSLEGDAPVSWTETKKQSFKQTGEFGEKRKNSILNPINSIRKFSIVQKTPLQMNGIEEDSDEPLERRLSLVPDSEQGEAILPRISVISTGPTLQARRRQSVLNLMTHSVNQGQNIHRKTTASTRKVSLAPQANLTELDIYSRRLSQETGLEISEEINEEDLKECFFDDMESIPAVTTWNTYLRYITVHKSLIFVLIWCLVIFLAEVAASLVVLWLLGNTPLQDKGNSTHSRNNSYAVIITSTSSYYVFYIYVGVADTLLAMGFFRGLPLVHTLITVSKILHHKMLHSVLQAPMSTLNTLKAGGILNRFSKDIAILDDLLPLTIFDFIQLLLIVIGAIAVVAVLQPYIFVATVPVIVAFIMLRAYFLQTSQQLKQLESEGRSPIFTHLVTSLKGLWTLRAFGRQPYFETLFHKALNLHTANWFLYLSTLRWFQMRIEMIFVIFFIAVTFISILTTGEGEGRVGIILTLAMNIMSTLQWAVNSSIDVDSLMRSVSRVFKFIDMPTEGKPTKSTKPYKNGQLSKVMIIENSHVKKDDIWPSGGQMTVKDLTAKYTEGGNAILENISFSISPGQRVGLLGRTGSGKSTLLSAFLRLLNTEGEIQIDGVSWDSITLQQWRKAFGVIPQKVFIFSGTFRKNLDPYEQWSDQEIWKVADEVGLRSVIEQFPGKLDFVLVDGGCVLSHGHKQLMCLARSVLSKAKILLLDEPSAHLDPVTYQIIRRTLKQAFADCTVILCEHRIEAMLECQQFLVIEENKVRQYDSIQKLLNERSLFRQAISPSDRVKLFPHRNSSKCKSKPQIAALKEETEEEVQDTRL

Row | Compound | pEC50 | Emax
1 | COc1cccc([C@H]2C[C@@H](NC(=O)C3(c4ccc5c(c4)OC(F)(F)O5)CC3)c3ccc(O)cc3O2)c1 [Example 20, 1-(2,2-difluoro-1,3-benzodioxol-5-yl)-N-[(2R,4R)-7-hydroxy-2-(3-methoxyphenyl)-3,4-dihydro-2H-chromen-4-yl]cyclopropanecarboxamide] | 5.34 | 30%
2 | CS(=O)(=O)NC(=O)c1ccc([C@H]2C[C@@H](NC(=O)C3(c4ccc5c(c4)OC(F)(F)O5)CC3)c3ccc(OC(F)F)cc3O2)cc1 [Example 203, 4-[(2R,4R)-4-({[1-(2,2-difluoro-1,3-benzodioxol-5-yl)cyclopropyl]carbonyl}amino)-7-(difluoromethoxy)-3,4-dihydro-2H-chromen-2-yl]-N-(methylsulfonyl)benzamide] | 6.16 | 157%
3 | CC(C)(C)OC(=O)N1CCC2(CC1)CC(NC(=O)C1(c3ccc4c(c3)OC(F)(F)O4)CC1)c1ccc(F)cc1O2 (stereo not drawn) [Example 92, tert-butyl 4-({[1-(2,2-difluoro-1,3-benzodioxol-5-yl)cyclopropyl]carbonyl}amino)-7-fluoro-3,4-dihydro-1′H-spiro[chromene-2,4′-piperidine]-1′-carboxylate] | 5.59 | 71%
4 | COCCOc1ccc2c(c1)O[C@@H](c1cccc(C(=O)OC)c1)C[C@H]2NC(=O)C1(c2ccc3c(c2)OC(F)(F)O3)CC1 [Example 94, methyl 3-[(2R,4R)-4-({[1-(2,2-difluoro-1,3-benzodioxol-5-yl)cyclopropyl]carbonyl}amino)-7-(2-methoxyethoxy)-3,4-dihydro-2H-chromen-2-yl]benzoate] | 6.03 | 119%
5 | COc1ccc2c(c1)O[C@@H](C(=O)NC(CO)CO)C[C@@H]2NC(=O)C1(c2ccc3c(c2)OC(F)(F)O3)CC1 (racemic) [Example 199, rac-(2R,4S)-4-({[1-(2,2-difluoro-1,3-benzodioxol-5-yl)cyclopropyl]carbonyl}amino)-N-(1,3-dihydroxypropan-2-yl)-7-methoxy-3,4-dihydro-2H-chromene-2-carboxamide] | 5.16 | 27%
6 | O=C(NC1CC(c2ccc(F)cc2)Oc2ccccc21)C1(c2ccc3c(c2)OC(F)(F)O3)CC1 (stereo not drawn) [Example 71, 1-(2,2-difluoro-1,3-benzodioxol-5-yl)-N-[2-(4-fluorophenyl)-3,4-dihydro-2H-chromen-4-yl]cyclopropanecarboxamide] | 5.55 | 91%
7 | O=C(O)c1cccc([C@H]2C[C@@H](NC(=O)C3(c4ccc5c(c4)OC(F)(F)O5)CC3)c3ccc(OCc4ccccc4)cc3O2)c1 [Example 98, 3-[(2R,4R)-7-(benzyloxy)-4-({[1-(2,2-difluoro-1,3-benzodioxol-5-yl)cyclopropyl]carbonyl}amino)-3,4-dihydro-2H-chromen-2-yl]benzoic acid] | 6.24 | 102%
8 | COC(=O)c1cccc([C@H]2C[C@@H](NC(=O)C3(c4ccc5c(c4)OC(F)(F)O5)CC3)c3cc(C)ccc3O2)c1 [Example 11, methyl 3-[(2R,4R)-4-({[1-(2,2-difluoro-1,3-benzodioxol-5-yl)cyclopropyl]carbonyl}amino)-6-methyl-3,4-dihydro-2H-chromen-2-yl]benzoate] | 6.04 | 102%
9 | CC1(C)C[C@@H](NC(=O)C2(c3ccc4c(c3)OC(F)(F)O4)CC2)c2ccc(Cl)cc2O1 [Example 76, N-[(4R)-7-chloro-2,2-dimethyl-3,4-dihydro-2H-chromen-4-yl]-1-(2,2-difluoro-1,3-benzodioxol-5-yl)cyclopropanecarboxamide] | 5.52 | 105%
10 | COC(=O)c1cccc([C@H]2C[C@@H](NC(=O)C3(c4ccc5c(c4)OC(F)(F)O5)CC3)c3ccccc3O2)c1 [Example 8, methyl 3-[(2R,4R)-4-({[1-(2,2-difluoro-1,3-benzodioxol-5-yl)cyclopropyl]carbonyl}amino)-3,4-dihydro-2H-chromen-2-yl]benzoate] | 5.76 | 98%
11 | COc1ccc2c(c1)OCC(Cc1ccc(OC)c(OC)c1)C2NC(=O)C1(c2ccc3c(c2)OC(F)(F)O3)CC1 (stereo not drawn) [Example 91, 1-(2,2-difluoro-1,3-benzodioxol-5-yl)-N-[3-(3,4-dimethoxybenzyl)-7-methoxy-3,4-dihydro-2H-chromen-4-yl]cyclopropanecarboxamide] | 5.57 | 82%
12 | COC(=O)c1cccc([C@H]2C[C@H](NC(=O)C3(c4ccc5c(c4)OC(F)(F)O5)CC3)c3cccnc3O2)c1 (racemic) [Example 34, rac-methyl 3-[(2R,4S)-4-({[1-(2,2-difluoro-1,3-benzodioxol-5-yl)cyclopropyl]carbonyl}amino)-3,4-dihydro-2H-pyrano[2,3-b]pyridin-2-yl]benzoate] | ≤ 4.70 | 15%
13 | COC(=O)c1cccc([C@H]2C[C@H](NC(=O)C3(c4ccc5c(c4)OC(F)(F)O5)CC3)c3ccc(OC)cc3O2)c1 [Example 5, methyl 3-[(2R,4S)-4-({[1-(2,2-difluoro-1,3-benzodioxol-5-yl)cyclopropyl]carbonyl}amino)-7-methoxy-3,4-dihydro-2H-chromen-2-yl]benzoate] | 5.61 | 92%
14 | COc1ccc2c(c1)O[C@@H](C(=O)NC1CCS(=O)(=O)CC1)C[C@H]2NC(=O)C1(c2ccc3c(c2)OC(F)(F)O3)CC1 (racemic) [Example 172, rac-(2R,4R)-4-({[1-(2,2-difluoro-1,3-benzodioxol-5-yl)cyclopropyl]carbonyl}amino)-N-(1,1-dioxidotetrahydro-2H-thiopyran-4-yl)-7-methoxy-3,4-dihydro-2H-chromene-2-carboxamide] | 5.39 | 66%
15 | COc1ccc2c(c1)O[C@@H](C1CCCC(C(=O)O)C1)C[C@H]2NC(=O)C1(c2ccc3c(c2)OC(F)(F)O3)CC1 (stereo partly drawn) [Example 35, 3-[(2R,4R)-4-({[1-(2,2-difluoro-1,3-benzodioxol-5-yl)cyclopropyl]carbonyl}amino)-7-methoxy-3,4-dihydro-2H-chromen-2-yl]cyclohexanecarboxylic acid] | 5.94 | 82%

Second part, the molecule after the results:

Row | pEC50 | Emax | Compound
16 | 4.97 | 21% | O=C(O)c1cccc([C@H]2C[C@@H](NC(=O)C3(c4ccc5c(c4)OC(F)(F)O5)CC3)c3cccnc3O2)c1 (racemic) [Example 31, rac-3-[(2R,4R)-4-({[1-(2,2-difluoro-1,3-benzodioxol-5-yl)cyclopropyl]carbonyl}amino)-3,4-dihydro-2H-pyrano[2,3-b]pyridin-2-yl]benzoic acid]
17 | 5.75 | 109% | COc1ccc2c(c1)O[C@@H](c1cccnc1)C[C@@H]2NC(=O)C1(c2ccc3c(c2)OC(F)(F)O3)CC1 (racemic) [Example 22, rac-1-(2,2-difluoro-1,3-benzodioxol-5-yl)-N-[(2R,4S)-7-methoxy-2-(pyridin-3-yl)-3,4-dihydro-2H-chromen-4-yl]cyclopropanecarboxamide]
18 | 6.00 | 104% | Cc1ccc2c(c1)O[C@@H](c1cccc(C(=O)NC[C@@H](O)CO)c1)C[C@H]2NC(=O)C1(c2ccc3c(c2)OC(F)(F)O3)CC1 [Example 48, 3-[(2R,4R)-4-({[1-(2,2-difluoro-1,3-benzodioxol-5-yl)cyclopropyl]carbonyl}amino)-7-methyl-3,4-dihydro-2H-chromen-2-yl]-N-[(2R)-2,3-dihydroxypropyl]benzamide]
19 | 5.23 | 58% | COC(=O)c1cccc([C@H]2C[C@H](NC(=O)C3(c4ccc5c(c4)OC(F)(F)O5)CC3)c3ccccc3O2)c1 [Example 7, methyl 3-[(2R,4S)-4-({[1-(2,2-difluoro-1,3-benzodioxol-5-yl)cyclopropyl]carbonyl}amino)-3,4-dihydro-2H-chromen-2-yl]benzoate]
20 | 5.39 | 112% | O=C(O)c1cccc([C@H]2C[C@H](NC(=O)C3(c4ccc5c(c4)OC(F)(F)O5)CC3)c3ccccc3O2)c1 [Example 10, 3-[(2R,4S)-4-({[1-(2,2-difluoro-1,3-benzodioxol-5-yl)cyclopropyl]carbonyl}amino)-3,4-dihydro-2H-chromen-2-yl]benzoic acid]
21 | 5.34 | 66% | O=C(O)c1ccc([C@H]2C[C@@H](NC(=O)C3(c4ccc5c(c4)OC(F)(F)O5)CC3)c3ccc(O)cc3O2)cc1 [Example 128, 4-[(2R,4R)-4-({[1-(2,2-difluoro-1,3-benzodioxol-5-yl)cyclopropyl]carbonyl}amino)-7-hydroxy-3,4-dihydro-2H-chromen-2-yl]benzoic acid]
22 | 5.74 | 78% | O=C(O)C1CCCC([C@H]2C[C@@H](NC(=O)C3(c4ccc5c(c4)OC(F)(F)O5)CC3)c3ccc(F)cc3O2)C1 (stereo partly drawn) [Example 36, 3-[(2R,4R)-4-({[1-(2,2-difluoro-1,3-benzodioxol-5-yl)cyclopropyl]carbonyl}amino)-7-fluoro-3,4-dihydro-2H-chromen-2-yl]cyclohexanecarboxylic acid]
23 | 5.93 | 87% | CCOC(=O)c1csc([C@H]2C[C@@H](NC(=O)C3(c4ccc5c(c4)OC(F)(F)O5)CC3)c3ccccc3O2)n1 (stereo in doubt) [Example 142, ethyl rel-2-[(2R,4R)-4-({[1-(2,2-difluoro-1,3-benzodioxol-5-yl)cyclopropyl]carbonyl}amino)-3,4-dihydro-2H-chromen-2-yl]-1,3-thiazole-4-carboxylate]
24 | 6.24 | 73% | COc1ccc2c(c1)O[C@@H](C(=O)N(CCO)Cc1ccccc1)C[C@@H]2NC(=O)C1(c2ccc3c(c2)OC(F)(F)O3)CC1 (racemic) [Example 184, rac-(2R,4S)—N-benzyl-4-({[1-(2,2-difluoro-1,3-benzodioxol-5-yl)cyclopropyl]carbonyl}amino)-N-(2-hydroxyethyl)-7-methoxy-3,4-dihydro-2H-chromene-2-carboxamide]
